Measured values taken from ChEMBL document CHEMBL2074027, “Polyaromatic alkaloids from marine invertebrates as cytotoxic compounds and inhibitors of multidrug resistance caused by P-glycoprotein” (Br J Cancer, 1996).

Target: ATP-dependent translocase ABCB1 (Homo sapiens, UniProt P08183)
Assay: TP_TRANSPORTER: inhibition of Rhodamine 123 efflux (R123: 20 uM, Lamellarin I: 10 uM) in Lo Vo/Dx cells
Type: functional, cell-based

Chain of ATP-dependent translocase ABCB1 (P08183 whole entry): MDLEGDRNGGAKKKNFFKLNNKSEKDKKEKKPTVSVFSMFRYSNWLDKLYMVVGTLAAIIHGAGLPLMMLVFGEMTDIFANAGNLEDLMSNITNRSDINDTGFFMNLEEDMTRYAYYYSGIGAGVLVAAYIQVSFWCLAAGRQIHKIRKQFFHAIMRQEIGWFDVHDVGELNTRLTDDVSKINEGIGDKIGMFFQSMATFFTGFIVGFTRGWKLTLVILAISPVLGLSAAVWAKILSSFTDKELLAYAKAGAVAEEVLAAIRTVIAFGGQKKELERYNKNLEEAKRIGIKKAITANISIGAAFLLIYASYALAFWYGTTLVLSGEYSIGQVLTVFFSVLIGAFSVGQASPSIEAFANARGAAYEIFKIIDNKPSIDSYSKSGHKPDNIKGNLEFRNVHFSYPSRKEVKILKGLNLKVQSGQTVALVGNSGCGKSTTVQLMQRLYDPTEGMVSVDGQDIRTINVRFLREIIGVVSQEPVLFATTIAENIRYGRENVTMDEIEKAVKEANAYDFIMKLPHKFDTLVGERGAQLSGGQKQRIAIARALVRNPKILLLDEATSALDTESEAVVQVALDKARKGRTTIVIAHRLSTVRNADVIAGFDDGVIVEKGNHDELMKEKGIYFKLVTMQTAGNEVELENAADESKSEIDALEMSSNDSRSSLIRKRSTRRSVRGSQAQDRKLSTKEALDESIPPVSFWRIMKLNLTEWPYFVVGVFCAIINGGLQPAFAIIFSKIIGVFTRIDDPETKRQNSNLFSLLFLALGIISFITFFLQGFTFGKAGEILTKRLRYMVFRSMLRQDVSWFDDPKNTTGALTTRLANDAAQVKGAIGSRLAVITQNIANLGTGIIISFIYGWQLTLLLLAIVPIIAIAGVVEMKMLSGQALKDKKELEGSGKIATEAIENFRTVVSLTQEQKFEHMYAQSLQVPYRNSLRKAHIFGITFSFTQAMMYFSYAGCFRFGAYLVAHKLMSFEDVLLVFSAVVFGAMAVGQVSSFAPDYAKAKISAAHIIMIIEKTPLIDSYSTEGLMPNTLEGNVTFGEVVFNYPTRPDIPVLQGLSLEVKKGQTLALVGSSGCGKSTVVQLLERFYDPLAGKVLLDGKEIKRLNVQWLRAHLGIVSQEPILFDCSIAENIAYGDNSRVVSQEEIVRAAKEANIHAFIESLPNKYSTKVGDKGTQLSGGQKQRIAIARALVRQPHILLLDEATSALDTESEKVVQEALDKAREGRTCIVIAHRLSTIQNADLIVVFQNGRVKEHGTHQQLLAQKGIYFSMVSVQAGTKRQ

Which Activity does the source give for `COc1cc2c(cc1O)OCc1c-2c(-c2ccc(OC)c(OC)c2)c2n1CCc1c-2cc(OC)c(OC)c1OC` [LAMELLARIN I] here?
Its Activity is “inhibitor [+]”.
